Measurements reported in US8927717B1, “Thiochromeno[2,3-c]quinolin-12-one derivatives, preparation method and application thereof” (National Defense Medical Center, priority 2014, dated 2015).
Like-named read-outs stand apart in the source and are kept apart here.

How the values were obtained:
DU-145 cell line = assay: MTT assay for cell cytotoxicity; type: cell-based, human; conditions: read-out: MTT assay (IC50 ± SD) DU-145
Experimental: (§1) All of synthesis compounds were evaluated cell cytotoxicity by using MTT colorimetric assay on PC-3 and DU-145 cell lines. DU-145 and PC-3 are human hormone-refractory (androgen-independent) prostatic cancer cell lines from American Type Culture Collection (HTB-81™, ATCC, Rockville, Md.)^125 and Bioresource Collection and Research Center (60122, BCRC, Taiwan)^126, respectively. Two of the “classical” cell lines were cultivated in RPMI-1640 medium supplemented with 5% fetal bovine serum (v/v), 100 U/mL penicillin, and […] streptomycin. Approximately 2×10^3 cells were seeded into each well of a 96-well plate and incubated in 5% CO2 at 37° C. for 24 h. To evaluate the in vitro cytotoxicity, all the synthetic compounds were dissolved in DMSO, prepared immediately before the experiments and diluted into the complete medium before being added to each well of a 96-well plate. Each compound was then added to the culture medium for designated various concentrations (0.15, 0.5, 1.5, 5, 15 μM). After 72 h, an amount of 100 μL of MTT (1 mg/mL) was added to each well, and the samples were incubated at 37° C. for 4 h. After removing the MTT solution, 100 μL of DMSO was added to each well and incubated at 37° C. for another 20 mins. The absorbency at 560 nm was measured by using an ELISA reader.
(§2) Results are expressed as mean values of at least three independent experiments. The IC50 values of testing compounds were described in Table 1.

PC-3 cell line = assay: MTT assay for cell cytotoxicity; type: cell-based, human; conditions: read-out: MTT assay (IC50 ± SD) PC-3
Experimental: as §1, §2

CC(C)CC(C)Nc1nc2ccccc2c2c(=O)c3cc(Cl)ccc3sc12 (stereo not shown) [Compound N13, 10-Chloro-6-((4-methylpentan-2-yl)amino)-12H-thiochromeno[2,3-c]quinolin-12-one]
IC50 (DU-145 cell line; Homo sapiens, DU-145, 72 h): 14.2 ± 1.18 µM | IC50 (PC-3 cell line; Homo sapiens, PC-3, 72 h): 10.4 ± 2.3 µM

O=c1c2cc(Cl)ccc2sc2c(NCCO)nc3ccccc3c12 [Compound N9, 10-Chloro-6-(2-ethanolamino)-12H-thiochromeno[2,3-c]quinolin-12-one]
IC50 (DU-145 cell line; DU-145 cells, 72 h, at least three independent experiments): 11.6 ± 7.23 µM | IC50 (PC-3 cell line; PC-3 cells, 72 h, at least three independent experiments): 7.48 ± 3.35 µM
